The subject of one assay is MDR E. coli ASEC 17. Also noted: method as in Asan hospital; key to susceptibility category: S: susceptible; R: resistant; I: intermediate. To be noted: ref Asan hospital, cited from earlier work; for MIC: ASEC 17 (AmpC), resistance information of clinical isolate; for susceptibility category: ASEC 17.
The next assay relates to ASEC 18 biofilm. To be noted: crystal violet A595, 24 h, three independent experiments. How it is done: (§1) Crystal violet staining was performed to determine the degree of biofilm formation by the E. coli 25922, S. aureus 25923, and ASEC strains. E. coli 25922 and S. aureus 25923 were cultured overnight in LB and TSB media with aeration at 180 rpm, respectively. Bacterial suspensions with 0.2% glucose (5 × 10^5 CFU mL^−1) were added to a 96-well plate (30096, surface treatment; SPL Life Sciences) and incubated for 24 h at 37°C. The supernatant was removed and fixed with 100% methanol. Next, 100 μL of crystal violet was added to the plate and incubated to dye the cells for 1 h, followed by rinsing the cells three times with distilled water (dH2O). After the crystal violet was dissolved with 95% ethanol, the mass of biofilm formation at 595 nm was measured using a Versa Max microplate reader (Molecular Devices). The inhibitory effect of PN5 against biofilm formed by E. coli 25922, S. aureus 25923, and three MDR E. coli strains (ASEC 2, 16, and 18) were determined. These cells were cultured overnight in LB and TSB media. Bacterial suspensions (5 × 10^5 CFU mL^−1) containing 0.2% glucose were added to 96-well plates and PN5 was serially diluted to a final concentration of 32 μM. The minimal biofilm inhibitory concentration (MBIC) was determined in three independent experiments. The percentage of biofilm formation was measured using the equation (A595 of treated biofilm/A595 of untreated biofilm) × 100. Similarly, the MDR ASEC 1 to 19 strains were cultured overnight in LB medium and seeded into 96-well plates with medium containing 0.2% glucose at 5 × 10^5 CFU mL^−1 of the bacterial suspension. Biofilm staining was performed as described above. SYTO 9 (6 μM) fluorescence in LIVE/DEAD BacLight was used to visualize the degree of biofilm formation. […] After 24 h, the culture supernatant of the peptide and bacteria was discarded, and the pellet was fixed with 100% methanol. A fluorescence mixture of SYTO 9 and propidium iodide was then added to each well, and the fluorescence was evaluated with an EVOS FL color imaging system (Thermo Fisher Scientific) with a 4× objective ([22]).

The test system of another assay is ASEC 2 biofilm. Conditions: for biofilm formation visualized with SYTO 9: antibiotics at 32 μM, 24 h, SYTO 9 staining (Fig. 3F); for MBIC50: crystal violet A595, 24 h, three independent experiments. Here is the method: as §1
For the next assay, the system named is ASEC 16 biofilm. To be noted: crystal violet A595, 24 h, three independent experiments. Here is the method:
as §1

The next assay deals with MDR E. coli ASEC 19. Also noted: method as in Asan hospital; key to susceptibility category: S: susceptible; R: resistant; I: intermediate. Conditions: ref Asan hospital, cited from earlier work; for MIC: ASEC 19 (AmpC), resistance information of clinical isolate; for susceptibility category: ASEC 19.
The next assay deals with MDR E. coli ASEC 1. Details: method as in Asan hospital; key to susceptibility category: S: susceptible; R: resistant; I: intermediate. To be noted: ref Asan hospital, cited from earlier work; for MIC: ASEC 1 (carbapenemase NDM-1), resistance information of clinical isolate; for susceptibility category: ASEC 1.
The subject of assay [1] is MDR E. coli ASEC 15. Details: method as in Asan hospital; key to susceptibility category: S: susceptible; R: resistant; I: intermediate. Conditions: ref Asan hospital, cited from earlier work; for MIC: ASEC 15 (AmpC), resistance information of clinical isolate; for susceptibility category: ASEC 15.
Assay [2] deals with MDR E. coli ASEC 15. Kind of assay: microbe, parasite or virus in culture. To be noted: microdilution, LB, 18 to 24 h, 37°C, three independent experiments. Type of assay: cell-based, Escherichia coli. In a few lines: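 LB (ASEC E. coli) or NB (S. Typhimurium) + 10 mM Na phosphate pH 7.4; peptide 1–64 μM, 2-fold steps, duplicate; inoculum suspension 2 × 10^5 CFU mL^−1; static, 37°C, 18–24 h.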
Background: Dilution methods test growth across graded concentrations, often in twofold steps.

A further assay relates to MDR E. coli ASEC 9. Also noted: method as in Asan hospital; key to susceptibility category: S: susceptible; R: resistant; I: intermediate. To be noted: ref Asan hospital, cited from earlier work; for MIC: ASEC 9 (ESBL), resistance information of clinical isolate; for susceptibility category: ASEC 9.
The subject of assay [3] is E. coli – Ceftazidime (Passage 25). As to the kind of experiment: microbe, parasite or virus in culture. Type of assay: cell-based, Escherichia coli. How it is done: (§2) E. coli ATCC 25922 cells were incubated overnight at 37°C in LB medium with shaking (180 rpm) and then adjusted to 2 × 10^5 CFU mL^−1; 0.5× MIC of PN5 and antibiotics were added to the medium and cultured overnight at 37°C with aeration (180 rpm). The MIC was determined by measuring the OD600 using a Versa Max microplate reader. On the next day, to measure the MIC with the bacteria grown after treatment with 0.5× MIC, the bacteria and antibiotic were adjusted to the same concentration, and the bacteria were cultured by adding 0.5× MIC in the same manner. The initial culture was continuously cultured for 25 passages in this manner.

The test system of a further assay is E. coli ATCC 25922. As to the kind of experiment: microbe, parasite or virus in culture. Type of assay: cell-based, Escherichia coli. Conditions: for MIC: Escherichia coli. Here is the method: as §2
Assay [4] relates to E. coli – Meropenem (Passage 25). Kind of assay: microbe, parasite or virus in culture. Type of assay: cell-based, Escherichia coli. Here is the method:
as §2

Where [5] appears, read: Escherichia coli, read-out: MIC.
Where [6] appears, read: Escherichia coli, read-out: MIC, value in parentheses.
[7] abbreviates: E. coli ATCC 25922 passaged with 0.5× MIC of the same agent.
Where [8] appears, read: ATCC25922, read-out: MIC after 25 passages.
[9] abbreviates: ATCC25922, read-out: MIC at passage 1.

The text below walks through data of publication PMC9603901, “Therapeutic Potential of Antimicrobial Peptide PN5 against Multidrug-Resistant E. coli and Anti-Inflammatory Activity in a Septic Mouse Model” (Microbiology Spectrum, 2022).

In brackets after ≈: the same amount, converted by molar mass. Where two headings read alike, the source gives them in different places. Where no end group is shown, it is not given here.

Take `CO/N=C(\C(=O)N[C@@H]1C(=O)N2C(C(=O)O)=C(COC(C)=O)CS[C@H]12)c1csc(N)n1` [Cefotaxime]: the MIC is above 32 µg/mL with MDR E. coli ASEC 17; above 32 µg/mL with MDR E. coli ASEC 19; above 32 µg/mL with MDR E. coli ASEC 1; above 32 µg/mL in the assay on MDR E. coli ASEC 15 [1]; above 32 µM with MDR E. coli ASEC 15 [2] (setting [5]); above 32 µg/mL with MDR E. coli ASEC 9. Also, the susceptibility category result with MDR E. coli ASEC 17, with MDR E. coli ASEC 19, in the assay with MDR E. coli ASEC 1, with MDR E. coli ASEC 15 [1] and in the assay with MDR E. coli ASEC 9 was “R” in each case. Moreover, the MBIC50 in the assay with ASEC 18 biofilm is >128 (>58.3) μM; with ASEC 2 biofilm it was >128 (>58.3) μM; in the assay on ASEC 16 biofilm, 128 (58.3) μM. The “biofilm formation visualized with SYTO 9” value with ASEC 2 biofilm was “did not inhibit biofilm formation”.

Take `CC(C)(O/N=C(\C(=O)N[C@@H]1C(=O)N2C(C(=O)[O-])=C(C[n+]3ccccc3)CS[C@H]12)c1csc(N)n1)C(=O)O` [Ceftazidime]: the MIC is above 16 µg/mL in the assay with MDR E. coli ASEC 17; above 16 µg/mL with MDR E. coli ASEC 19; above 16 µg/mL in the assay with MDR E. coli ASEC 1; above 16 µg/mL with MDR E. coli ASEC 15 [1]; above 32 µM in the assay on MDR E. coli ASEC 15 [2] (setting [5]); 128 µM (≈ 70 µg/mL) in assay [3] (Escherichia coli, ATCC25922). For the same compound, the MIC is 0.25 µM (≈ 0.137 µg/mL) in assay [3] (setting [6]); 128 µM (≈ 70 µg/mL) in the assay on E. coli ATCC 25922 (setting [8]); 0.25 µM (≈ 0.137 µg/mL) in the assay with E. coli ATCC 25922 (setting [9]); 0.25 µM (≈ 0.137 µg/mL) in [4] (Escherichia coli, ATCC25922); 0.25 µM (≈ 0.137 µg/mL) in [4] (setting [6]); above 16 µg/mL with MDR E. coli ASEC 9. For the same compound, the susceptibility category entry with MDR E. coli ASEC 17, in the assay on MDR E. coli ASEC 19, with MDR E. coli ASEC 1, in the assay with MDR E. coli ASEC 15 [1] and in the assay with MDR E. coli ASEC 9 was “R” throughout. The MBIC50 with ASEC 18 biofilm, with ASEC 2 biofilm and in the assay on ASEC 16 biofilm was >128 (>69.95) μM in each case. In addition, the “biofilm formation visualized with SYTO 9” value with ASEC 2 biofilm is “did not inhibit biofilm formation”. In addition, the “fold increase of MIC after 25 passages” value with E. coli ATCC 25922 (setting [7]) stood at 512 fold.

With `C[C@@H](O)[C@H]1C(=O)N2C(C(=O)O)=C(S[C@@H]3CN[C@H](C(=O)N(C)C)C3)[C@H](C)[C@H]12` [Meropenem], the MIC result was “<= 1 μg mL-1” with MDR E. coli ASEC 17; “<= 1 μg mL-1” in the assay with MDR E. coli ASEC 19; 8 µg/mL (≈ 20.9 µM) in the assay on MDR E. coli ASEC 1; “<= 1 μg mL-1” with MDR E. coli ASEC 15 [1]; below 1 µM with MDR E. coli ASEC 15 [2] (setting [5]); 0.0312 µM (≈ 0.012 µg/mL) in assay [3] (Escherichia coli, ATCC25922). Further, the MIC in [3] (setting [6]) was 0.0312 µM (≈ 0.012 µg/mL); in the assay with E. coli ATCC 25922 (setting [8]), 0.25 µM (≈ 0.0959 µg/mL); with E. coli ATCC 25922 (setting [9]), 0.0312 µM (≈ 0.012 µg/mL); in [4] (Escherichia coli, ATCC25922), 0.25 µM (≈ 0.0959 µg/mL); in assay [4] (setting [6]), 0.0312 µM (≈ 0.012 µg/mL); in the assay on MDR E. coli ASEC 9, “<= 1 μg mL-1”. Moreover, the susceptibility category entry in the assay on MDR E. coli ASEC 17 is reported as “S”; in the assay on MDR E. coli ASEC 19, “S”; in the assay with MDR E. coli ASEC 1, “R”; in the assay on MDR E. coli ASEC 15 [1], “S”; with MDR E. coli ASEC 9 it was “S”. The values for the MBIC50 with ASEC 18 biofilm, in the assay on ASEC 2 biofilm and in the assay with ASEC 16 biofilm were <2 (<0.77) μM, 64 (24.54) μM and <2 (<0.77) μM, respectively. The “biofilm formation visualized with SYTO 9” value with ASEC 2 biofilm is on record as “did not inhibit biofilm formation”. For the same compound, the “fold increase of MIC after 25 passages” value with E. coli ATCC 25922 (setting [7]) came out at 8 fold.

On to FKFLARTGKFL-NH2 [PN5], for which the values for the MBIC50 in the assay with ASEC 18 biofilm, with ASEC 2 biofilm and with ASEC 16 biofilm were 16 (21.22) μM, 8 (10.61) μM and 16 (21.22) μM, respectively. In addition, the MIC with MDR E. coli ASEC 15 [2] was 16 (21.22) μM; in [3] (E. coli ATCC 25922 with resistance induced by ceftazidime, passage 25, three independent experiments) it was 16 µM; in assay [4] (E. coli ATCC 25922 with resistance induced by meropenem, passage 25, three independent experiments), 16 µM. In the assay with E. coli ATCC 25922 (setting [7]), the “MIC after 25 passages” value was 16 µM.
